Measured values reported in patent EP4328302A1, “SYNTHESIS OF […] P450 MONO[…] A […]-FREE SYSTEM […] VESICLES” (Fraunhofer-Gesellschaft zur Förderung der angewandten …, priority 2022, dated 2024).

Target: T1, CYP3A4 (Homo sapiens, UniProt P08684)
T1 construct: made in house; host or cells: cell-free protein synthesis in translationally active lysates of CHO-K1 or modified CHO (CHO-CPR, CHO-CPR/CYP3A4) cells; plasmid template from Biocat GmbH
Assay: Luciferase based CYP3A4 activity assay (P450-Glo, Luciferin-IPA turnover) in the microsomal fraction after cell-free synthesis with heme supplementation
Type: biochemical
Experimental: Synthesis of proteins in translationally active lysates derived from cultured Chinese hamster ovary (CHO) cells and its modified variants CHO-CPR and CHO-CPR/CYP3A4 cells, was performed in batch based systems as previously described (Thoring et al. 2016). Accordingly designed plasmids, suitable for CFPS, coding for the CYP of interest, were applied as template. T7 RNA Polymerase, amino acids, an energy regeneration system and other supplements were added to the translationally active lysates with the additional supplementation of 5 µM heme (porcine) (Alfa Aesar Haverhill, Massachusetts, USA) to the reaction and a reaction temperature of 24 °C despite elsewise noted. For the isolation of the microsomes the translation mixture (TM) was centrifuged at 16.000 x g for 10 minutes at 4 °C. […]
For CYP activity measurement,"P450-Glo™ Assays" (Promega, Madison, Wisconsin, USA) were used. CYP1A2 activity was detected by Luciferase-ME turnover (V8772), CYP2B6 was detected by Luciferin-2B6 turnover (V8321) and CYP3A4 was detected by Luciferin-IPA turnover (V9001). […] For response condition adjustments, CYP activities were usually expressed as percentage of the highest CYP activity during the assay. For CYP activity quantification, a standard curve was prepared using beetles luciferin (Promega, Madison, Wisconsin, USA) according to the attached protocol. […]

T1 sequence (P08684 whole entry): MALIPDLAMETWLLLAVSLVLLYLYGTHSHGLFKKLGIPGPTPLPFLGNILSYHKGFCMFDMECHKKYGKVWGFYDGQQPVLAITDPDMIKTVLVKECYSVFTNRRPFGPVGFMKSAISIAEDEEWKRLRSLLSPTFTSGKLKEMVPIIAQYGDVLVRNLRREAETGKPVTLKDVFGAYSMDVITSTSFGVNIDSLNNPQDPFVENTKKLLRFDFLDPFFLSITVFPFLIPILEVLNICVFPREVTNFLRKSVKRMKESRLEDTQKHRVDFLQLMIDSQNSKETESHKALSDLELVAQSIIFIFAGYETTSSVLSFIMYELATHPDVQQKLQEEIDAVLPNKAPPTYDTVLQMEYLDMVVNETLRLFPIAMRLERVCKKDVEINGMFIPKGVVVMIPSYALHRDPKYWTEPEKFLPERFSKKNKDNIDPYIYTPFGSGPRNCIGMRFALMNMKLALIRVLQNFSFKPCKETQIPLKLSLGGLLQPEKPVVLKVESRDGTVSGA

C=CC1=C(C)c2cc3[n-]c(cc4[n-]c(cc5nc(cc1n2)C(C)=C5C=C)c(C)c4CCC(=O)O)c(CCC(=O)O)c3C.[Fe+2] [heme]
CYP3A4 activity compared to the control without supplementation (heme concentration of 5 µM in the cell-free reaction, microsomal fraction (MF), triplicate analysis, highest CYP3A4 activity): more than twofold higher | reduced activity compared to the 5 µM heme supplemented sample (supplementation of higher concentrations of heme (above 5 µM) to the cell-free reaction, CYP3A4 activity in MF): 60%
